Source: ChEMBL document CHEMBL1201862, “PubChem BioAssay data set” (2004)
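Test compounds were applied to cells in 96-well plates for 48 hours at 5 doses. GI50 is the concentration that inhibits growth by half.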 The source made the active and inactive calls. Rule as the data show it: active = GI50 up to about 1.1 µM and inactive = higher.

Experiments:
Assay in all cases: NCI anticancer screen, dose series, 48 h
HCT-116 = tested on: HCT-116
786-0 = tested on: 786-0
HL-60 = tested on: HL-60
HCC 2998 = tested on: HCC 2998
EKVX = tested on: EKVX
HOP-92 = tested on: HOP-92
SNB-19 = tested on: SNB-19
MDA-MB-435 = tested on: MDA-MB-435
NCI-H460 = tested on: NCI-H460
LOX IMVI = tested on: LOX IMVI
SK-MEL-2 = tested on: SK-MEL-2
UO-31 = tested on: UO-31
RXF 393 = tested on: RXF 393
A549 = tested on: A549
UACC-257 = tested on: UACC-257
SK-MEL-5 = tested on: SK-MEL-5
KM12 = tested on: KM12
NCI-H226 = tested on: NCI-H226
RPMI-8226 = tested on: RPMI-8226
M14 = tested on: M14
UACC-62 = tested on: UACC-62
MCF7 = tested on: MCF7
OVCAR-5 = tested on: OVCAR-5
K562 = tested on: K562
PC-3 = tested on: PC-3
NCI-H522 = tested on: NCI-H522
ACHN = tested on: ACHN
HOP-62 = tested on: HOP-62
A498 = tested on: A498
SF-539 = tested on: SF-539
OVCAR-4 = tested on: OVCAR-4
MOLT-4 = tested on: MOLT-4
Malme-3M = tested on: Malme-3M
TK-10 = tested on: TK-10
T47D = tested on: T47D
DU-145 = tested on: DU-145
NCI-H23 = tested on: NCI-H23
SF-295 = tested on: SF-295
SN12C = tested on: SN12C
SW-620 = tested on: SW-620
MDA-MB-231 = tested on: MDA-MB-231
BT-549 = tested on: BT-549
U-251 = tested on: U-251
OVCAR-3 = tested on: OVCAR-3
NCI/ADR-RES = tested on: NCI/ADR-RES
CAKI-1 = tested on: CAKI-1
IGROV-1 = tested on: IGROV-1
SR = tested on: SR
COLO 205 = tested on: COLO 205
HCT-15 = tested on: HCT-15
MDA-N = tested on: MDA-N
CCRF-CEM = tested on: CCRF-CEM
SK-MEL-28 = tested on: SK-MEL-28
HT-29 = tested on: HT-29
OVCAR-8 = tested on: OVCAR-8
SF-268 = tested on: SF-268
SK-OV-3 = tested on: SK-OV-3
SNB-75 = tested on: SNB-75
Hs-578T = tested on: Hs-578T

CCOC(=O)c1sc2nc(SC)nc(Nc3ccc4c(c3)OCO4)c2c1N
GI50 (HCT-116): > 100 µM (inactive) | GI50 (786-0): 21.6 µM (inactive) | GI50 (HL-60): > 100 µM (inactive) | GI50 (HCC 2998): > 100 µM (inactive) | GI50 (EKVX): 31.9 µM (inactive) | GI50 (HOP-92): 17.4 µM (inactive) | GI50 (SNB-19): 54.7 µM (inactive) | GI50 (MDA-MB-435): > 100 µM (inactive) | GI50 (NCI-H460): > 100 µM (inactive) | GI50 (LOX IMVI): > 100 µM (inactive) | GI50 (SK-MEL-2): 68.4 µM (inactive) | GI50 (UO-31): 71.3 µM (inactive) | GI50 (RXF 393): 10.9 µM (inactive) | GI50 (A549): 68.9 µM (inactive) | GI50 (UACC-257): > 100 µM (inactive) | GI50 (SK-MEL-5): 44.1 µM (inactive) | GI50 (KM12): > 100 µM (inactive) | GI50 (NCI-H226): 71.3 µM (inactive) | GI50 (RPMI-8226): 53.8 µM (inactive) | GI50 (M14): 41.9 µM (inactive) | GI50 (UACC-62): 25.1 µM (inactive) | GI50 (MCF7): 30.6 µM (inactive) | GI50 (OVCAR-5): > 100 µM (inactive) | GI50 (K562): 81.1 µM (inactive) | GI50 (PC-3): 37.8 µM (inactive) | GI50 (NCI-H522): 46.7 µM (inactive) | GI50 (ACHN): 19.9 µM (inactive) | GI50 (HOP-62): 28.8 µM (inactive) | GI50 (A498): 28.4 µM (inactive) | GI50 (SF-539): 32.9 µM (inactive) | GI50 (OVCAR-4): 37.7 µM (inactive) | GI50 (MOLT-4): > 100 µM (inactive) | GI50 (Malme-3M): 29.6 µM (inactive) | GI50 (TK-10): 30.9 µM (inactive) | GI50 (T47D): 39.5 µM (inactive) | GI50 (DU-145): 35.8 µM (inactive) | GI50 (NCI-H23): 53 µM (inactive) | GI50 (SF-295): 16 µM (inactive) | GI50 (SN12C): 59 µM (inactive) | GI50 (SW-620): 4.34 µM (inactive) | GI50 (MDA-MB-231): 26 µM (inactive) | GI50 (BT-549): 33.7 µM (inactive) | GI50 (U-251): 32.9 µM (inactive) | GI50 (OVCAR-3): 37.4 µM (inactive) | GI50 (NCI/ADR-RES): 64.6 µM (inactive) | GI50 (CAKI-1): > 100 µM (inactive) | GI50 (IGROV-1): > 100 µM (inactive) | GI50 (SR): > 100 µM (inactive) | GI50 (COLO 205): > 100 µM (inactive) | GI50 (HCT-15): 0.706 µM | GI50 (MDA-N): > 100 µM (inactive) | GI50 (CCRF-CEM): 50.7 µM (inactive) | GI50 (SK-MEL-28): 1.91 µM (inactive)

S=C(Nc1cccc(Cl)c1)Nc1ccccn1
GI50 (HCT-116): > 100 µM (inactive) | GI50 (786-0): > 100 µM (inactive) | GI50 (HL-60): > 100 µM (inactive) | GI50 (EKVX): 82 µM (inactive) | GI50 (HT-29): > 100 µM (inactive) | GI50 (SNB-19): > 100 µM (inactive) | GI50 (MDA-MB-435): > 100 µM (inactive) | GI50 (NCI-H460): > 100 µM (inactive) | GI50 (LOX IMVI): > 100 µM (inactive) | GI50 (SK-MEL-2): > 100 µM (inactive) | GI50 (OVCAR-8): > 100 µM (inactive) | GI50 (UO-31): > 100 µM (inactive) | GI50 (RXF 393): > 100 µM (inactive) | GI50 (A549): > 100 µM (inactive) | GI50 (SF-268): > 100 µM (inactive) | GI50 (UACC-257): > 100 µM (inactive) | GI50 (SK-MEL-5): > 100 µM (inactive) | GI50 (KM12): 13.5 µM (inactive) | GI50 (NCI-H226): > 100 µM (inactive) | GI50 (SK-OV-3): > 100 µM (inactive) | GI50 (RPMI-8226): > 100 µM (inactive) | GI50 (M14): > 100 µM (inactive) | GI50 (UACC-62): > 100 µM (inactive) | GI50 (MCF7): > 100 µM (inactive) | GI50 (OVCAR-5): > 100 µM (inactive) | GI50 (K562): > 100 µM (inactive) | GI50 (PC-3): > 100 µM (inactive) | GI50 (HOP-62): > 100 µM (inactive) | GI50 (SF-539): > 100 µM (inactive) | GI50 (OVCAR-4): > 100 µM (inactive) | GI50 (MOLT-4): > 100 µM (inactive) | GI50 (Malme-3M): 27.6 µM (inactive) | GI50 (TK-10): > 100 µM (inactive) | GI50 (T47D): > 100 µM (inactive) | GI50 (DU-145): > 100 µM (inactive) | GI50 (SF-295): > 100 µM (inactive) | GI50 (SN12C): > 100 µM (inactive) | GI50 (SW-620): > 100 µM (inactive) | GI50 (SNB-75): 1.14 µM (inactive) | GI50 (BT-549): > 100 µM (inactive) | GI50 (U-251): > 100 µM (inactive) | GI50 (OVCAR-3): > 100 µM (inactive) | GI50 (NCI/ADR-RES): > 100 µM (inactive) | GI50 (CAKI-1): > 100 µM (inactive) | GI50 (IGROV-1): > 100 µM (inactive) | GI50 (SR): > 100 µM (inactive) | GI50 (COLO 205): > 100 µM (inactive) | GI50 (HCT-15): > 100 µM | GI50 (Hs-578T): > 100 µM (inactive) | GI50 (CCRF-CEM): > 100 µM (inactive) | GI50 (SK-MEL-28): > 100 µM (inactive)

OC(c1ccco1)C(F)(F)c1nc2ccccc2o1 (stereo unspecified)
GI50 (HCT-116): > 100 µM (inactive) | GI50 (786-0): > 100 µM (inactive) | GI50 (HL-60): > 100 µM (inactive) | GI50 (HCC 2998): > 100 µM (inactive) | GI50 (EKVX): > 100 µM (inactive) | GI50 (HOP-92): > 100 µM (inactive) | GI50 (HT-29): > 100 µM (inactive) | GI50 (SNB-19): > 100 µM (inactive) | GI50 (MDA-MB-435): > 100 µM (inactive) | GI50 (NCI-H460): > 100 µM (inactive) | GI50 (LOX IMVI): > 100 µM (inactive) | GI50 (SK-MEL-2): > 100 µM (inactive) | GI50 (OVCAR-8): > 100 µM (inactive) | GI50 (UO-31): 69.2 µM (inactive) | GI50 (RXF 393): > 100 µM (inactive) | GI50 (SF-268): > 100 µM (inactive) | GI50 (UACC-257): > 100 µM (inactive) | GI50 (SK-MEL-5): > 100 µM (inactive) | GI50 (KM12): > 100 µM (inactive) | GI50 (NCI-H226): > 100 µM (inactive) | GI50 (SK-OV-3): 68.4 µM (inactive) | GI50 (RPMI-8226): > 100 µM (inactive) | GI50 (M14): 29.5 µM (inactive) | GI50 (UACC-62): > 100 µM (inactive) | GI50 (MCF7): 41.1 µM (inactive) | GI50 (K562): 69.8 µM (inactive) | GI50 (PC-3): > 100 µM (inactive) | GI50 (ACHN): > 100 µM (inactive) | GI50 (HOP-62): > 100 µM (inactive) | GI50 (A498): 62.1 µM (inactive) | GI50 (SF-539): > 100 µM (inactive) | GI50 (OVCAR-4): > 100 µM (inactive) | GI50 (MOLT-4): > 100 µM (inactive) | GI50 (TK-10): > 100 µM (inactive) | GI50 (T47D): 61.5 µM (inactive) | GI50 (DU-145): > 100 µM (inactive) | GI50 (NCI-H23): > 100 µM (inactive) | GI50 (SF-295): 56.8 µM (inactive) | GI50 (SW-620): > 100 µM (inactive) | GI50 (MDA-MB-231): > 100 µM (inactive) | GI50 (SNB-75): > 100 µM (inactive) | GI50 (BT-549): > 100 µM (inactive) | GI50 (U-251): > 100 µM (inactive) | GI50 (NCI/ADR-RES): > 100 µM (inactive) | GI50 (CAKI-1): > 100 µM (inactive) | GI50 (IGROV-1): > 100 µM (inactive) | GI50 (SR): > 100 µM (inactive) | GI50 (COLO 205): > 100 µM (inactive) | GI50 (HCT-15): > 100 µM | GI50 (Hs-578T): > 100 µM (inactive) | GI50 (CCRF-CEM): > 100 µM (inactive) | GI50 (SK-MEL-28): > 100 µM (inactive)
